Experimental data: patent US12509421B2, “Preparation and application of deuterated 4-phenyl-4-piperidinols” (priority 2022, dated 2025)
Where a name gives a salt, the structure may show the parent alone.

Columns and labels:
μOR = molecular target: T1, μOR (Homo sapiens, UniProt P35372); assay: Opioid receptor competitive binding test, μOR; settings: compound at 10 μM; [3H]-labeled ligand; CHO cell membranes; ± SD of three measurements
T1 construct: expressed in transfected cells; host or cells: CHO cells
Experimental: (§1) CHO cells expressing p opioid receptor, δ opioid receptor and K opioid receptor are cultured in a 10 cm^2 Petri dish (F-12 medium+10% newborn bovine serum) for several days, and the culture solution is sucked after the cells grew to the bottom of the dish. 3 ml PBS/EDTA solution (0.1M NaCl, 0.01M NaH2PO4, 0.04% EDTA) is added for digestion for 3-5 minutes. The cells are blown with a straw to get fall off completely, collected in a 40 ml centrifuge tube, centrifuged at 5000 rpm for 5 minutes, and removed with the supernatant. The centrifuge tube is added with ice-cold homogenate (50 mM HEPES PH 7.4, 3 mM MgCl2, 1 mM EGTA). The solution and precipitate are transferred to homogenizer for homogenization; Then the homogenate is transferred into a centrifuge tube, centrifuged at 18000 rpm for 15 minutes, and centrifuged twice; the obtained precipitate is added with an appropriate amount of buffer solution of 50 mM Tris-HCl and pH 7.4, homogenized and sub-packaged in centrifuge tubes. The product is stored in a refrigerator at −70° C. for later use.
(§2) 20-30 μg expressed membrane receptor protein and [3H]-labeled ligand (1-2 nM) are added to the total binding tube, added with 1 μM of corresponding ligand to the corresponding nonspecific binding tube. Various screened opioid ligand drugs (see the drug compounds in Table 1 below) are added to the sample tube with 100 μL final volume. The sample is incubated at 30° C. for 30 minutes, and the reaction is terminated in ice water. The glass fiber filter paper gF/C (whatman) is used for negative pressure filtration on Millipore sample collector. The sample is eluted with 4 ml 50 mm tris-HCl (pH 7.4) for three times, dried with the filter paper, put in 0.5 ml Eppendorf tube and added with 0.5 ml lipophilic scintillation liquid. The radioactive intensity is measured with PERKIN ELMER PRI-CARB 2910 liquid scintillation counter with calculation of the inhibition rate. The experiment is repeated for more than three times, with three compound tubes in each group. Inhibition rate(or binding rate)=(total binding rate dpm−sample tube dpm)/(total binding tube dpm-nonspecific binding tube dpm)×100%
(§3) IC50 is calculated with Prism 5.0 software. The Ki value is calculated according to the following formula: Ki=IC50/(1^+[L]/Kd), wherein [L] is the concentration of the added labeled ligand, and Kd is the equilibrium dissociation parameter of the labeled ligand.

δOR = molecular target: T2, δOR (Homo sapiens, UniProt P41143); assay: Opioid receptor competitive binding test, δOR; settings: compound at 10 μM; [3H]-labeled ligand; CHO cell membranes; ± SD of three measurements
T2 construct: expressed in transfected cells; host or cells: CHO cells
Experimental: as §1, §2, §3

κOR = molecular target: T3, κOR (Homo sapiens, UniProt P41145); assay: Opioid receptor competitive binding test, κOR; settings: compound at 10 μM; [3H]-labeled ligand; CHO cell membranes; ± SD of three measurements
T3 construct: expressed in transfected cells; host or cells: CHO cells
Experimental: as §1, §2, §3

ICR mice = assay: Evaluation of side effects of constipation (defecation time, number, weight); assay type: in vivo; settings: for Number of defecating animals: 10 mice per group; for Number of defecating animals / Fecal weight: within 5 hours; for Defecation time: first black stool; for Defecation time / water content of feces / Fecal weight: x ± SE; for Defecation time / water content of feces: only animals that defecate within 5 hours
Experimental: Constipation side effect is a common side effect of opioid drugs. This patent evaluates the possibility of constipation side effect by the influence of the compound on defecation time, defecation quantity and defecation weight of experimental animals.
ICR mice are randomly divided into 6 groups with 10 mice in each group after adaptive feeding. Fasting for 16-24 h, without stopping drinking, the blank control group is given solvent, during which the normal diet is: (1) the blank control group; (2) Compound diphenoxylate (7.5 mg/kg) group; (3) Low dose (1 mg/kg) group; (4) High dose (5 mg/kg) group of the compound to be tested.
After administration for 30 minutes, the mice in each group are given Chinese ink by gavage. After administration, the mice are kept in a single cage, and the excretion time of the first black stool is recorded. The number and weight (wet weight) of defecation particles in each mouse within 5 hours after administration are recorded. each group of mice are placed in an IVC cage with clean filter paper. The feces of each mouse are collected, put into a sterile 1.5 ml EP tube and stored in an ice box. During the collection, the number of defecation particles of each mouse is recorded, and the wet weight is weighed. After the collected feces are dried, the dry weight of the feces is recorded. Drying conditions: put fresh feces in an oven and bake at 100° C. for 5-10 minutes until the dry weight of feces is constant. The following formula is used to calculate the water content of feces, and the water content of feces (%)=(wet feces mass−dry feces mass)/wet feces mass×100%.
The data required for measurement and observation in this experiment are recorded in the corresponding table. All data are statistically processed by Microsoft Excel, and expressed as “mean standard error”. The data of each group are statistically analyzed by SPSS software package.

[1] = Metabolic stability in liver microsomes, dog; settings: for half-life at 2 μM / microsomal CLint at 2 μM: dog, microsomes, pH 7.4
Experimental: (§4) The solution B is slowly dropped into solution A, and the pH is adjusted to 7.40±0.05.
(§5) • Control drug: 4 μL Verapamil solution (10 mM) is added with 96 μL DMSO and diluted to 400 μM; • Compound to be tested: 4 μL compound to be tested (10 mM) is added with 96 μL normal saline and diluted to 400 μM.
(§6) The microsomes are stored in the refrigerator at −80° C., thawed at room temperature after being taken out, and mixed gently.
(§7) […] PBS (100 mm, pH=7.4) solution is added to the negative sample. The solution is put into water bath at 37° C. and pre-incubated for 10 minutes; • B) After incubation, 2 μL reference drug or compound to be tested (400 μM) are added into each well to start the reaction.

[2] = Metabolic stability in liver microsomes, rat; settings: for half-life at 2 μM / microsomal CLint at 2 μM: rat, microsomes, pH 7.4
Experimental: as §4, §5, §6, §7

[3] = Metabolic stability in liver microsomes, mouse; settings: for half-life at 2 μM / microsomal CLint at 2 μM: mouse, microsomes, pH 7.4
Experimental: as §4, §5, §6, §7

CYP 3A4 = CYP 3A4 (Homo sapiens, UniProt P08684); assay: biochemical; settings: CYP 3A4 IC50, human liver microsomes
CYP 2C9 = CYP 2C9 (Homo sapiens, UniProt P11712); assay: Inhibition of cytochrome P450 enzyme in human liver microsomes, CYP 2C9
CYP 2D6 = CYP 2D6 (Homo sapiens, UniProt P10635); assay: Inhibition of cytochrome P450 enzyme in human liver microsomes, CYP 2D6
CYP 2C19 = CYP 2C19 (Homo sapiens, UniProt P33261); assay: Inhibition of cytochrome P450 enzyme in human liver microsomes, CYP 2C19
[4] = Dog liver microsomes 0.5 mg/mL, NADPH 1 mM, compound 2 μM
[5] = Rat liver microsomes 0.5 mg/mL, NADPH 1 mM, compound 2 μM
[6] = Mouse liver microsomes 0.5 mg/mL, NADPH 1 mM, compound 2 μM

Row | Compound | μOR binding rate (μOR) [%] | δOR binding rate (δOR) [%] | κOR binding rate (κOR) [%] | Number of defecating animals (ICR mice; 1 mg/kg) | Defecation time (ICR mice; 1 mg/kg) [min] | water content of feces (ICR mice; 1 mg/kg) [%] | Fecal weight (ICR mice; 1 mg/kg) [g] | water content of feces (ICR mice; 5 mg/kg) [%] | Fecal weight (ICR mice; 5 mg/kg) [g] | Number of defecating animals (ICR mice; 5 mg/kg) | Defecation time (ICR mice; 5 mg/kg) [min] | half-life at 2 μM [1] [min] | microsomal CLint at 2 μM [1] [µL/min/mg] | half-life at 2 μM [2] [min] | microsomal CLint at 2 μM [2] [µL/min/mg] | half-life at 2 μM [3] [min] | microsomal CLint at 2 μM [3] [µL/min/mg] | IC50 (CYP 3A4; substrate midazolam) [µM] | IC50 (CYP 3A4; substrate testosterone) [µM] | IC50 (CYP 2C9) [µM] | also measured
1 | COc1cccc([C@]2(O)CCN(S(=O)(=O)Cc3ccccc3)C[C@H]2CN(C)C)c1.Cl [Example 20 of CN201911076305.X, reference compound] | 27.52 ± 1.54 | 10.5 ± 3.7 | 15.25 ± 1.56 | 9 | 281 ± 4 | 19.6 ± 4.5 | 0.1243 ± 0.0153 | 0 | 0 |  |  |  |  |  |  |  |  |  |  |  | Number of defecating animals (ICR mice; 5 mg/kg, hydrochloride): 0; Number of defecating animals (ICR mice; 5 mg/kg, listed as Example 20 in patent CN201911076305.X, hydrochloride): did not defecate; constipation in experimental animals (ICR mice; comparative experiments of the inventor): can cause constipation in experimental animals in a dose-dependent manner; CLint [1, 4]: 839.02 μL/min/mg protein; t1/2 [1, 4]: 1.65 min; CLint [2, 5]: 747.68 μL/min/mg protein; t1/2 [2, 5]: 1.85 min; CLint [3, 6]: 1101.92 μL/min/mg protein; t1/2 [3, 6]: 1.26 min
2 | [2H]C([2H])([2H])N(C)C[C@@H]1CN(S(=O)(=O)Cc2ccccc2)CC[C@@]1(O)c1cccc(OC)c1 [II-1hydrochloride] | 27.9 ± 1.3 | 11.6 ± 2.1 | 16.37 ± 1.6 | 9 | 105.9 ± 10.5 | 43.5 ± 2.6 | 0.3682 ± 0.0816 | 38.2 ± 8.6 | 0.0586 ± 0.0065 | 3 | 202.4 ± 6.2 | 5.01 | 605 | 5.63 | 701 | 5.19 | 659 | 42.9 | 41.9 | > 50 | IC50 (CYP 2D6): 13 µM; IC50 (CYP 2C19): > 50 µM
3 | [2H]C([2H])([2H])Oc1cccc([C@]2(O)CCN(S(=O)(=O)Cc3ccccc3)C[C@H]2CN(C([2H])([2H])[2H])C([2H])([2H])[2H])c1 [II-5hydrochloride] | 27.1 ± 1.2 | 12.9 ± 1.8 | 15.8 ± 4.6 | 8 | 160.1 ± 9.9 | 42.7 ± 1.9 | 0.3389 ± 0.0902 | 37.6 ± 8.6 | 0.0478 ± 0.0061 | 2 | 202.8 ± 4.2 | 6.03 | 720 | 6.59 | 763 | 6.05 | 706 | > 50 | > 50 | > 50 | IC50 (CYP 2D6): 15.3 µM; IC50 (CYP 2C19): > 50 µM
4 | [2H]C([2H])([2H])N(C[C@@H]1CN(C(=O)Cc2cc(F)c(F)cc2F)CC[C@@]1(O)c1cccc(OC)c1)C([2H])([2H])[2H] [II-9hydrochloride] | 27.1 ± 1.1 | 12.8 ± 0.8 | 17.2 ± 3.5 | 8 | 182.6 ± 10.2 | 43.2 ± 2.5 | 0.3399 ± 0.0983 | 37.9 ± 8.9 | 0.0489 ± 0.0073 | 2 | 242.9 ± 11.9 | 5.19 | 659 | 5.55 | 681 | 5.03 | 612 | 48 | 47 | > 50 | IC50 (CYP 2D6): 13.7 µM; IC50 (CYP 2C19): > 50 µM
